Publication PMC9653733, “Characterization of a Potent, Selective, and Safe Inhibitor, Ac15(Az8)2, in Reversing Multidrug Resistance Mediated by Breast Cancer Resistance Protein (BCRP/ABCG2)” (International Journal of Molecular Sciences, 2022)
Read-outs that look alike come from different tables or passages of the source.

Key:
S1 xenograft = experiment: In vivo efficacy in parental S1 xenograft; design: species or system Balb/c nu nu mice; details: four times (700% without treatment)
Source text: (A) S1 xenograft. (B) S1M180 xenograft. There were 3 treatment groups in S1 and S1M180 xenograft model. Treatments were given as indicated by an arrow (↑). % of tumor volume reduction was compared among different treatment groups on days 55 and 71. a, b, and c = mean tumor volume of solvent control, topotecan alone, and combination treatment groups on day 55, respectively. d and e = mean tumor volume of topotecan alone and combination treatment groups on day 71. (C) Tumor weight of S1M180-bearing mice on termination day. (D) % change of tumor volume and tumor doubling time of S1M180 xenograft were determined on days 55 and 71. […] Number of animal death was monitored during the efficacy study. (E) Body weight of S1M180-bearing mice. (F) To measure plasma and intratumor level of topotecan, S1M180-bearing mice were administered with 45 mg/kg (I.P.) of Ac15(Az8)2 one hour prior to 6 mg/kg (I.P.) of topotecan administration. Five hours after topotecan administration, the mice were sacrificed. Plasma and tumor were collected for analyzing topotecan level using UPLC–MS/MS. Student’s unpaired two-tailed t-test was performed between combination group and topotecan alone group or solvent control group as indicated (* p < 0.05, ** p < 0.01, *** p < 0.001).

BCRP-ATPase = molecular target: T1, BCRP-ATPase (Homo sapiens, UniProt Q9UNQ0, R482G); experiment: Vanadate-sensitive BCRP-ATPase activity (S1M180 microsome fraction); assay type: biochemical; details: 2.5 mM ATP, 1 h
T1 construct: endogenous in cells; host or cells: S1M180 (human colon carcinoma, mitoxantrone-selected)
T1 sequence (Q9UNQ0 1-655 R482G): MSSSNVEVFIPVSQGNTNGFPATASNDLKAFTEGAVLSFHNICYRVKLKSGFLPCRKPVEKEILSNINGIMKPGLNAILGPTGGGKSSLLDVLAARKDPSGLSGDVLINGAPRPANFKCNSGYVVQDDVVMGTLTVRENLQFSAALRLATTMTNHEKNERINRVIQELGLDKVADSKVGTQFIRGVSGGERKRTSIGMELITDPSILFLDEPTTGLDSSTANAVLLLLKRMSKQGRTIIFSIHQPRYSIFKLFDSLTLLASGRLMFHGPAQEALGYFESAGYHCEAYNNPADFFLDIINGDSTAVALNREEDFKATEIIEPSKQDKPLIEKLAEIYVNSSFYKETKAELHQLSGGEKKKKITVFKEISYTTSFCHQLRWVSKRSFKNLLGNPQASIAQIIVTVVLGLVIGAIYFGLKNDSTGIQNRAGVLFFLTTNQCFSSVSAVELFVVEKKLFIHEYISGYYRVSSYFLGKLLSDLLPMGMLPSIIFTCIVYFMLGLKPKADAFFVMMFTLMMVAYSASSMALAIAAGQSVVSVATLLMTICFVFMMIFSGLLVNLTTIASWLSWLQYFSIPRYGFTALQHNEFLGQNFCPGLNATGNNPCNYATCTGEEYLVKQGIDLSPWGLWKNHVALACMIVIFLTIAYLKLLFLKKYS
Method: Ouabain (Na^+/K^+-ATPase inhibitor) and sodium azide (F-type ATPase inhibitor) were added to S1M180 microsome fraction to inhibit non-ABC transporter ATPase activities. Sodium orthovanadate inhibits ABC transporter ATPase activity and is used to calculate vanadate-ensitive activity by subtraction from the total ATPase activity (without sodium orthovanadate). […] After reaction was stopped, inorganic phosphate level was determined using colorimetry method. The percentages of vanadate-sensitive BCRP-ATPase activity were shown as mean ± S.D.
The membrane fraction of S1M180 cells was prepared as previously reported [48]. […] The absorbance of 655 nm was measured by CLARIOstar® microplate reader (BMG). […]

BCRP = molecular target: T2, BCRP (Homo sapiens, UniProt Q9UNQ0, R482G); experiment: Lineweaver-Burk and Dixon plots of DOX retention in S1M180; assay type: cell-based; details: for Ki: S1M180, DOX retention
T2 construct: endogenous in cells; host or cells: S1M180 (human colon carcinoma, mitoxantrone-selected)
T2 sequence (Q9UNQ0 1-655 R482G): T1 sequence (Q9UNQ0 1-655 R482G)
Method: We investigated the biochemical mechanism by which Ac15(Az8)2 inhibits BCRP. S1M180 cells were incubated with DOX and Ac15(Az8)2 at different concentrations. DOX accumulation was measured and analyzed by Lineweaver–Burk plot. […] Moreover, it is implied that DOX and Ac15(Az8)2 are not binding to the same site on BCRP. The apparent inhibition constant (Ki) can be calculated by either the Lineweaver–Burk plot (inset of Figure 5A) or the Dixon plot (Figure 5B).
Figure 5 Lineweaver–Burk and Dixon plot for Ac15(Az8)2 and DOX. S1M180 cells were incubated with different concentrations of Ac15(Az8)2 and DOX. The cells were pre-treated with Ac15(Az8)2 for 2 h and then incubated with DOX for 1 h at 37 °C. After incubation, the cells were washed with ice-cold PBS, and the intracellular DOX level was measured. (A) In Lineweaver–Burk plot, the reciprocal of DOX retention rate (V, μM/min/500,000 cells) is plotted against reciprocal of DOX concentration used. Six lines of Ac15(Az8)2 pass through the same intercepts at the x-axis, which is Km for the DOX. […] (B) In Dixon plot, reciprocal of DOX retention rate (1/V) was plotted against concentration of Ac15(Az8)2.

L929 = experiment: Cytotoxicity towards normal mouse fibroblast cells L929; assay type: cell-based; details: value without asterisk
BCRP (S1M180 cells) = molecular target: T3, BCRP (S1M180 cells) (Homo sapiens, UniProt Q9UNQ0, R482G); experiment: Drug accumulation assay in S1M180; assay type: cell-based
T3 construct: endogenous in cells; host or cells: S1M180 (human colon carcinoma, mitoxantrone-selected)
T3 sequence (Q9UNQ0 1-655 R482G): T1 sequence (Q9UNQ0 1-655 R482G)
Method: Figure 2 Effect of Ac15(Az8)2 on intracellular accumulation of BCRP-substrates in S1 and S1M180 cells. Cells were pre-treated with 0.1% DMSO, 100 nM, or 1000 nM Ac15(Az8)2 and then incubated with BCRP substrates. (A) Topotecan accumulation. (B) DOX accumulation. The intracellular level of drug after treatment was normalized to that of S1 cells after incubating with 0.1% DMSO. Student unpaired two-tailed t-test was conducted as indicated (** p < 0.01, *** p < 0.001). (C) To measure DOX efflux, S1M180 cells were pre-incubated with medium containing 20 μM DOX for 1 h at 37 °C. Cells were then washed and further incubated with or without 1 µM of Ac15(Az8)2. At 0, 5, 10, 30, 60, 120, and 180 min, the cells were harvested to measure the intracellular DOX level. (D) To determine intracellular Ac15(Az8)2 concentration, 1 × 10^7 cells were incubated with 1 µM of Ac15(Az8)2 at 37 °C for 2 h. Cells were then washed with ice-cold PBS. To the cell pellet, acetonitrile was added to lyse the cells, and the supernatant was saved for Ac15(Az8)2 determination using UPLC–MS/MS.
Briefly, 1 × 10^6 cells of S1 and S1M180 cells were pre-incubated with 100 nM or 1000 nM Ac15(Az8)2 for 2 h and followed by 50 µM of topotecan or 20 µM of DOX for 1-h incubation. DMSO at 0.1% was used as a negative control. After incubation, the cells were spun down and washed with cold PBS, pH7.4 for 2 times and lysed with 100 μL of lysis buffer (0.75 M HCl, 0.2% Triton-X100 in isopropanol) with vigorous vortex. The lysate was further incubated at 37 °C for 20 min. After incubation, the lysate was spun down, and 100 μL of supernatant was saved and seeded into a black 96-well microtiter plate. The fluorescence level of DOX was determined by a fluorescence microplate reader (BMG Technologies) using excitation and an emission wavelength pair of 460 nm and 610 nm.

[1] = 100 nM or 1000 nM Ac15(Az8)2, 2 h pre-incubation

SMILES: COC(=O)c1cccc(COc2c(-c3ccc(OCCOCCn4cc(CN(Cc5ccccc5)Cc5cn(CCOCCOc6ccc(-c7oc8ccccc8c(=O)c7OCc7cccc(C(=O)OC)c7)cc6)nn5)nn4)cc3)oc3ccccc3c2=O)c1 [Ac15(Az8)2]
- Xenograft volume on the 11th day (S1 xenograft; topotecan 2 mg/kg + 45 mg/kg Ac15(Az8)2 I.P. every other day): 200%
- IC50 (BCRP-ATPase): 7.5 nM
- Ki (BCRP; Lineweaver–Burk and Dixon, read-out: Apparent inhibition constant (Ki), range of both plots): 230 to 295 nM
- Ki (BCRP; read-out: Ki, Dixon plot): 230 nM
- Ki (BCRP; slope of double reciprocal plots vs concentration, read-out: Apparent Ki, Lineweaver–Burk plot): 295 nM
- Relationship with DOX in binding to BCRP (BCRP; did not affect Km but reduced Vmax): non-competitive
- IC50 (L929): > 500000 nM
- Effect on DOX accumulation in S1M180 (BCRP (S1M180 cells); [1]): increase the accumulation
- Effect on topotecan accumulation in S1M180 (BCRP (S1M180 cells); [1]): increase the accumulation

SMILES: CC[C@@]1(O)C(=O)OCc2c1cc1n(c2=O)Cc2cc3c(CN(C)C)c(O)ccc3nc2-1 [topotecan]
- Xenograft volume on the 11th day (S1 xenograft; topotecan alone 2 mg/kg I.P. every other day): 200%
- Topotecan accumulation in S1M180, fold less than parental S1 (BCRP (S1M180 cells); 50 µM topotecan, 1 h, p < 0.01): about 2.1 fold
